Experimental data: patent publication US20070197591A1, “USE OF PALIPERIDONE FOR THE TREATMENT OF A MENTAL DISORDER IN A PSYCHIATRIC PATIENT WITH REDUCED HEPATIC FUNCTION” (priority 2005, published 2007)

Assay: Plasma protein binding / unbound fraction of paliperidone and its enantiomers
Format: in vitro ADME, human
Conditions: human
Source text: Objectives: The primary objective of this study was to investigate the single-dose pharmacokinetics of immediate-release (IR) paliperidone, after oral administration, in subjects having moderate hepatic impairment (“hepatically-impaired subjects”) compared with subjects having normal hepatic function (“healthy subjects”). The secondary objective was to document the plasma protein binding and disposition of the enantiomers of paliperidone. In addition, the tolerability and safety profile of IR paliperidone was compared between hepatically impaired subjects and healthy subjects. Criteria for Evaluation: Pharmacokinetics: Plasma and urine concentrations of the paliperidone enantiomers (+) R078543 and (−) R078544 were determined using an LC-MS/MS method. Concentrations of paliperidone were calculated as the sum of the enantiomer concentrations. In addition, serum and urine concentrations of creatinine were determined for the calculation of CLCR. The protein binding and unbound fraction was determined for the 2 paliperidone enantiomers. The unbound fraction for paliperidone was calculated.

Compound `Cc1nc2n(c(=O)c1CCN1CCC(c3noc4cc(F)ccc34)CC1)CCCC2O` (stereo not drawn) [Paliperidone, paliperidone] has a fraction unbound (Healthy Subjects (n = 10)) of 0.279, a fraction unbound (Hepatically-Impaired Subjects (n = 10; paliperidone n = 8)) of 0.353 and a relative increase in unbound fraction vs healthy subjects (vs healthy subjects, read-out: unbound fraction higher in hepatically-impaired subjects) of ~0.27.
